Measured values published in patent publication EP2266622A2, “Prodrugs containing novel bio-cleavable linkers” (Piramal Life Sciences Limited, priority 2004, dated 2006).
Values joined by “and” are separate entries in the source; they are usually repeats but may differ in a detail not shown here. Equal entries are not always repeated. Where two headings read alike, the source gives them in different places.

What was measured:
MES-induced seizures [1] = test: Test 3: MES quantification (time to peak effect, ED50), rats p.o.; type: in vivo; conditions: for Biological Response MES (number of animal protected/number of animal tested): time 6 h
clonic seizures [2] = test: Test 3: scMET, rats p.o.; type: in vivo; conditions: 50 mg/kg
Protocol: (§1) Subcutaneous Metrazol Seizure Threshold Test (scMET): Subcutaneous injection of the convulsant metrazol produces clonic seizures in laboratory animals. […] Animals were pretreated with various doses of the test compound given by i.p. injection. At the previously determined Time to Peak Effect (TPE) of the test compound, the dose of metrazol which will produce convulsions in 97% of animals (CD97: 85 mg/kg in mice) was injected into a loose fold of skin in the midline of the neck. The animals were placed in isolation cages to minimize stress and observed for the next 30 minutes for the presence or absence of a seizure. An episode of clonic spasms, approximately […], of the fore and/or hind limbs, jaws, or vibrissae is taken as the end point.
(§2) Rats received test compounds orally.
(§3) Table 1: Primary Screening (Test 1) data for Anticonvulsant Activity and Neurotoxicity in Mice (test compound administered i.p.)

MES-induced seizures [3] = test: Test 1: Maximal Electroshock Test (MES), mice i.p.; type: in vivo; conditions: for MES: class symbol = dose
Protocol: (§4) Most of the prodrugs and mutual prodrugs of anticonvulsants described in this invention were evaluated at National Institute of Neurological Disorders and Stroke (NINDS), National Institute of Health (NIH), under their Antiepileptic Screening Program (ASP).
(§5) Test 1 is an initial screening for anticonvulsant activity in the Maximal Electroshock Test (MES) and Subcutaneous Metrazol Seizure Threshold Test (scMET) models combined with an initial assessment of toxicity (TOX) in mice via i.p. injection (see further explanation below). The data for each condition is presented as N/F, where N = number of animals protected from seizure and F = number of animals tested. For test of toxicity, N = number of animals displaying toxic effects and F = number of animals tested. Any deaths occurring during the test were recorded.
(§6) Maximal Electroshock Test (MES): The MES is a model for generalized tonic-clonic seizure and provides an indication of a compound's ability to prevent seizure spread when all neuronal circuits in the brain are maximally active. These seizures are highly reproducible and electro-physiologically consistent with human seizures. For all tests based on MES convulsions, 60 Hz of alternating current (50 mA in mice) is delivered for […] by corneal electrodes, which have been primed with an electrolyte solution containing an anesthetic agent (0.5% tetracaine hydrochloride). Mice were tested at various intervals following doses of 30, 100 and 300 mg/kg of test compound given by i.p. injection of a volume of 0.01 mL/g. Other doses can be used if indicated by previously known pharmacology. An animal is considered "protected" from MES-induced seizures upon abolition of the hind-limb tonic extensor component of the seizure.

MES-induced seizures [4] = test: Test 2: MES, rats p.o.; type: in vivo; conditions: 30 mg/kg
From the text: as §6, §2

Neurological toxicity [5] = test: Test 3: neurological toxicity, rats p.o.; type: in vivo
From the text: as §2, §3

Neurological toxicity [6] = test: Test 2: neurological toxicity, rats p.o.; type: in vivo; conditions: 30 mg/kg
From the text: as §2

[7] = system: minimal muscular or neurological impairment; test: Test 1: Acute toxicity, minimal motor impairment (rotorod), mice i.p.; type: in vivo; conditions: for Rotorod Toxicity: class symbol = dose
Protocol: as §4, §5

clonic seizures [8] = test: Test 1: Subcutaneous Metrazol Seizure Threshold Test (scMET), mice i.p.; type: in vivo; conditions: class symbol = dose
Protocol: as §4, §5, §1

[9] = system: carrageenan-induced rat paw edema; test: Carrageenan-induced rat paw edema model; type: in vivo; conditions: 75 mg/kg equivalent dose of aspirin, p.o.
Protocol: Male or female Sprague-Dawley rats weighing 150-200 g were used in the study. The rats were fed normal standard laboratory chow and maintained under standard conditions (room temperature of 22 ± 2 °C; 50 ± 10 % relative humidity; artificial light 06:00 to 18:00). All experimental procedures mentioned below are approved by institutional animal research committees and were performed in accordance with standard guidelines for the treatment of animals.
Anti-inflammatory activity of test compounds was measured in carrageenan-induced rat paw edema model (Takeuchi et al., J. Pharmacol. Exp. Ther. 1998, 286 (1), 115-121). […] We have not yet evaluated I-C1-NOPD5Bin this efficacy test.

[10] = In vitro plasma stability; conditions: rat plasma at 37 °C, 30 minutes incubation, HPLC analysis
Protocol: HPLC: Waters Allience analytical HPLC equipped with 2996 PDA detector and Empower software were used to analyze the samples.
HPLC Column: Waters X-Terra RP-18 analytical column, 150 X 3.9 mm, 5 .
HPLC Method: Flow: 1 mL/min, detecter set at 210 nm and at Maxplot (210-400 nm range). Solvent A: Acetonitrile; Solvent B: 0.1% TFA in water. Elution method: A linear gradient of 0-100% A.
The compounds were extracted back into acetonitrile with rigorous vortex.

mucosal damage = conditions: rats, oral, 3 hours after administration
[11] = Oral pharmacokinetics (plasma salicylate by HPLC); conditions: rats, 35 mg/kg equivalent dose

For `CCOC(=O)CC1(CNC(=O)OCCSSCCOC(=O)Nc2nnc(-c3cccc(Cl)c3Cl)c(N)n2)CCCCC1` [I-AA-MPD12], the “Time to Peak Effect MES (number of animal protected/number of animal tested)” value (MES-induced seizures [1]; 15 mg/kg, 6.0 h) was 2/4, the “Time to Peak Effect MES (number of animal protected/number of animal tested)” value (MES-induced seizures [1]; 15 mg/kg, 8.0 h) was 1/4 and the “Time to Peak Effect MES (number of animal protected/number of animal tested)” value (MES-induced seizures [1]; 30 mg/kg, 0.5 h) was 0/4. For the same compound, the “Time to Peak Effect MES (number of animal protected/number of animal tested)” value (MES-induced seizures [1]; 30 mg/kg, 1.0 h) was 0/4, the “Time to Peak Effect MES (number of animal protected/number of animal tested)” value (MES-induced seizures [1]; 30 mg/kg, 2.0 h) was 1/4 and the “Time to Peak Effect MES (number of animal protected/number of animal tested)” value (MES-induced seizures [1]; 30 mg/kg, 4.0 h) was 3/4. For the same compound, the “Time to Peak Effect MES (number of animal protected/number of animal tested)” value (MES-induced seizures [1]; 30 mg/kg, 6.0 h) was 4/4, the “Time to Peak Effect MES (number of animal protected/number of animal tested)” value (MES-induced seizures [1]; 30 mg/kg, 8.0 h) was 4/4 and the “Time to Peak Effect MES (number of animal protected/number of animal tested)” value (MES-induced seizures [1]; 30 mg/kg, 24 h) was 2 out of 4 and 2/4. The “potency compared with parent drug lamotrigine (in words)” value (MES-induced seizures [1]; MES) was “less potent than lamotrigine”, the ED50 (MES-induced seizures [1]; MES model, at the compound's time of peak effect (4, 6 or 8 h)) was 17 mg/kg and the “duration of protection (in words)” value (MES-induced seizures [1]; MES, 30 mg/kg, up to 24 h) was “significant extension in the duration of protection”. For the same compound, the “time to peak effect” value (MES-induced seizures [1]; MES, dose of 30 mg/kg) was 6.0 to 8.0 h, the “Biological Response MES (number of animal protected/number of animal tested)” value (MES-induced seizures [1]; dose 7.5 mg/kg) was 0/8 and the “Biological Response MES (number of animal protected/number of animal tested)” value (MES-induced seizures [1]; dose 15 mg/kg) was 5/8. For the same compound, the “Biological Response MES (number of animal protected/number of animal tested)” value (MES-induced seizures [1]; dose 30 mg/kg) was 7/8, the “Biological Response MES (number of animal protected/number of animal tested)” value (MES-induced seizures [1]; dose 60 mg/kg) was 7/8 and the “Time to Peak Effect ScMET (number of animal protected/number of animal tested)” value (clonic seizures [2]; 1.0 h) was 1/4. For the same compound, the “Time to Peak Effect ScMET (number of animal protected/number of animal tested)” value (clonic seizures [2]; 2.0 h) was 0/4, the “Time to Peak Effect ScMET (number of animal protected/number of animal tested)” value (clonic seizures [2]; 4.0 h) was 0/4 and the “Time to Peak Effect ScMET (number of animal protected/number of animal tested)” value (clonic seizures [2]; 6.0 h) was 1/4. For the same compound, the “Time to Peak Effect ScMET (number of animal protected/number of animal tested)” value (clonic seizures [2]; 8.0 h) was 2/4, the “Time to Peak Effect ScMET (number of animal protected/number of animal tested)” value (clonic seizures [2]; 24 h) was 0/4 and the “activity in MES (Test 1, in words)” value (MES-induced seizures [3]) was “active in MES”. For the same compound, the “MES (number of animal protected/number of animal tested)” value (MES-induced seizures [3]; 100 mg/kg (++), 4.0 h) was 3/3, the “MES (number of animal protected/number of animal tested)” value (MES-induced seizures [3]; 100 mg/kg (++), 6 hours after dosing) was 1/3 and the “MES (number of animal protected/number of animal tested)” value (MES-induced seizures [3]; 300 mg/kg (+), 4.0 h) was 1/1. For the same compound, the MES (MES-induced seizures [3]; 0.5 h) was “- (- = no activity or no toxicity at 300 mg/kg)”, the MES (MES-induced seizures [3]; at 6 hours after dosing (footnotes g, m)) was “++ (++ = activity or toxicity at 100 mg/kg)” and the “MES (number of animal protected/number of animal tested)” value (MES-induced seizures [4]; 0.50 h) was 0/4. For the same compound, the “MES (number of animal protected/number of animal tested)” value (MES-induced seizures [4]; 1.00 h) was 0/4, the “MES (number of animal protected/number of animal tested)” value (MES-induced seizures [4]; 2.00 h) was 1/4 and the “MES (number of animal protected/number of animal tested)” value (MES-induced seizures [4]; 4.00 h) was 3/4. For the same compound, the “toxicity (in words)” value (Neurological toxicity [5]; 50 mg/kg) was “none of the animals exhibited toxicity”, the “Toxicity (number of animals exhibiting toxicity/number of animals tested)” value (Neurological toxicity [5]; 50 mg/kg, 1.0 h) was 0/4 (5 0) and the “Toxicity (number of animals exhibiting toxicity/number of animals tested)” value (Neurological toxicity [5]; 50 mg/kg, 2.0 h) was 0/4 (50). For the same compound, the “Toxicity (number of animals exhibiting toxicity/number of animals tested)” value (Neurological toxicity [5]; 50 mg/kg, 4.0 h) was 0/4 (50), the “Toxicity (number of animals exhibiting toxicity/number of animals tested)” value (Neurological toxicity [5]; 50 mg/kg, 6.0 h) was 0/4 (50) and the “Toxicity (number of animals exhibiting toxicity/number of animals tested)” value (Neurological toxicity [5]; 50 mg/kg, 8.0 h) was 0/4 (50). The “Toxicity (number of animals exhibiting toxicity/number of animals tested)” value (Neurological toxicity [5]; 50 mg/kg, 24 h) was 0/4 (50), the “toxicity (in words)” value (Neurological toxicity [5]; 100 mg/kg) was “one of eight animals exhibited mild ataxia” and the “Toxicity (number of animals exhibiting toxicity/number of animals tested)” value (Neurological toxicity [5]; 100 mg/kg, 8.0 h, mild ataxia only (footnote h)) was 1/8 (100)^h. The “Toxicity (number of animals exhibiting toxicity/number of animals tested)” value (Neurological toxicity [6]; 0.50 h) was 0/4, the “Toxicity (number of animals exhibiting toxicity/number of animals tested)” value (Neurological toxicity [6]; 1.00 h) was 0/4 and the “Toxicity (number of animals exhibiting toxicity/number of animals tested)” value (Neurological toxicity [6]; 2.00 h) was 0/4. The “Toxicity (number of animals exhibiting toxicity/number of animals tested)” value (Neurological toxicity [6]; 4.00 h) was 0/4, the “toxicity (Test 1, in words)” value [7] was “no or mild toxicity” and the “Rotorod Toxicity” value ([7]; 0.5 h) was “- (- = no activity or no toxicity at 300 mg/kg)”. For the same compound, the “Rotorod Toxicity” value ([7]; 4.0 h) was “- (- = no activity or no toxicity at 300 mg/kg)”, the ScMET (clonic seizures [8]; 0.5 h) was “- (- = no activity or no toxicity at 300 mg/kg)” and the ScMET (clonic seizures [8]; 4.0 h) was “- (- = no activity or no toxicity at 300 mg/kg)”.

With `CC(=O)Oc1ccccc1C(=O)OCCSSCCO[N+](=O)[O-]` [I-C1-NOPD4] the “anti-inflammatory activity (in words)” value [9] was “significant activity during the first two hours after drug administration”, the “release of parent drug / conversion to salicylate” value [10] was “converting to the expected metabolite (salicylate)” and the “ulcer development (in words)” value (mucosal damage; 100 mg/kg equivalent doses) was “none of the animals treated with the test compounds showed any signs of development of ulcers”.

With `CC(=O)Oc1ccccc1C(=O)NC(=O)OCCSSCCO[N+](=O)[O-]` [I-C1-NOPD5A] the “anti-inflammatory activity (in words)” value [9] was “negligible anti-inflammatory activity at any time point tested”, the “release of parent drug / conversion to salicylate” value [10] was “converting to the expected metabolite (salicylate)” and the “ulcer development (in words)” value (mucosal damage; 200 mg/kg equivalent doses) was “none of the animals treated with the test compounds showed any signs of development of ulcers”.

For `CC(=O)Oc1ccccc1C(=O)[N-]C(=O)OCCSSCCO[N+](=O)[O-].[Na+]` [I-C1-NOPD5B], the “salicylate release profile (in words)” value [11] was “released in a sustained and controlled manner starting from 1 hour through 12 hours” and the “ulcer development (in words)” value (mucosal damage; 200 mg/kg equivalent doses) was “none of the animals treated with the test compounds showed any signs of development of ulcers”.

In the case of `CC(=O)Oc1ccccc1C(=O)NCCSSCCO[N+](=O)[O-]` [I-C1-NOPD6], the “prodrug or salicylate found in plasma” value ([11]; any time point up to 24 hrs) is reported as “neither the prodrug nor the salicylate was found in the plasma” and the “ulcer development (in words)” value (mucosal damage; 100 mg/kg equivalent doses) is reported as “none of the animals treated with the test compounds showed any signs of development of ulcers”.
